Test in all cases: inhibition of tumour cell growth, NCI panel, 48 h
Assay [1] relates to NCI-H23 lung.
Assay [2] has as its system BT-549 breast.
Assay [3] concerns HS 578T breast.
Assay [4] relates to NCI/ADR-RES ovarian.
The subject of assay [5] is SK-MEL-2 melanoma.
Assay [6] concerns SNB-19 CNS.
For assay [7], the system named is SW-620 colon.
In assay [8] the test system is CAKI-1 renal.
The test system of assay [9] is NCI-H522 lung.
In assay [10] the test system is PC-3 prostate.
Assay [11] relates to DU-145 prostate.
For assay [12], the system named is OVCAR-4 ovarian.

This passage reports TGI results from PubChem BioAssay (NCI).

Structures are written as SMILES.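 Assay format: 96-well plates, 48-hour exposure. TGI denotes the concentration required for complete inhibition of growth.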 Where a SMILES comes first, the peptide text is derived from it. The star is where a group is joined. Cbz = O=C(OCc1ccccc1)*

For `CCOC(=O)C(Cc1ccc(O)cc1)Nc1nc(=O)c2c(=O)oc(Cl)cc2o1` (configuration not stated), the TGI is 40.5 µM in assay [1]; 14.1 µM in [2]; 11.1 µM in assay [3]; greater than 69.7 µM in assay [4]; 34.3 µM in assay [5]; 27.3 µM in assay [6]. Moreover, the TGI in assay [7] amounted to 15.2 µM; in [8] it was 16.6 µM; in [9], 19.9 µM; in [10], 21.4 µM; in [11] it was 51.1 µM; in assay [12], 25.9 µM.
Take `O=C(Cn1c2ccc(Br)cc2c2nc3ccccc3nc21)NNC(=S)NC1CCCCC1`: the TGI worked out at 30.5 µM in [1]; 42.8 µM in assay [2]; 52.9 µM in assay [3]; 34.5 µM in assay [4]; 40.4 µM in assay [5]; 33.8 µM in [6]. Also, the TGI came to 29.2 µM in [7]; 38.6 µM in [8]; 27.6 µM in [9]; 24 µM in assay [10]; 29.4 µM in assay [11]; 41.2 µM in assay [12].
Consider `C/C=C\C(CC(=O)NCC(=O)c1c[nH]c2ccccc12)CC(=O)OC` (configuration not stated), for which the TGI in assay [1], in assay [2], in assay [3], in [4], in assay [5] and in assay [6] was greater than 100 µM throughout. The TGI in assay [7], in assay [8], in assay [9], in [10], in [11] and in assay [12] was greater than 100 µM throughout.
Turning to `NCCCN(CCCN)CCc1cn(C(=O)c2ccccc2)cn1`, the TGI was 36.7 µM in assay [1]; 35.1 µM in [2]; 86.5 µM in assay [3]; 53.9 µM in assay [4]; 24.7 µM in assay [5]; 33.6 µM in assay [6]. Besides, the TGI in assay [7] stood at 38.2 µM; in [8], 16.1 µM; in assay [9], 64.9 µM; in [10] it was 21.5 µM; in [11], 11.3 µM; in assay [12], 15.3 µM.
For the compound `O=C1c2c(Br)sc(Br)c2C(=O)C1(O)O`, the TGI is 99.6 µM in [1]; 37.9 µM in assay [2]; greater than 100 µM in assay [3]; greater than 100 µM in [4]; 86.7 µM in [5]; greater than 100 µM in assay [6]. Moreover, the TGI in assay [7] was greater than 100 µM; in [8] it was 33.3 µM; in assay [9] it was 37.3 µM; in [10], 51.1 µM; in assay [11], greater than 100 µM; in assay [12], 34.3 µM.
For `O=C1OCC2OC(=O)c3cc(O)c(O)c(O)c3-c3c(O)c(O)c(O)c4c3C(=O)OC(C2OC(=O)c2cc(O)c(O)c(O)c2-c2c1cc(O)c(O)c2O)C1OC(=O)C2C4=C(O)C(=O)C23Oc2cc(O)c4c(c2[C@H]13)O[C@H](c1ccc(O)c(O)c1)[C@@H](O)C4` (some centres not stated), the TGI in assay [1] is 47.3 µM; in assay [2] it was 83.3 µM; in assay [3], greater than 100 µM; in assay [4], 73.3 µM; in assay [5], 64.4 µM; in [6], greater than 100 µM. In addition, the TGI in assay [7] is 53.5 µM; in assay [8] it was 30.7 µM; in [9] it was 50.4 µM; in [10], greater than 100 µM; in [11], greater than 100 µM; in [12], 43.5 µM.
`Oc1c(Br)ccc2cccnc12`: the TGI in assay [1] is 7.28 µM; in assay [2], greater than 92.2 µM; in assay [3] it was 72.5 µM; in assay [4] it was 6.38 µM; in assay [5] it was greater than 100 µM; in assay [6] it was greater than 100 µM. In addition, the TGI is greater than 45.6 µM in assay [7]; 60.3 µM in [8]; 6.21 µM in assay [9]; greater than 100 µM in assay [10]; greater than 68.8 µM in [11]; greater than 92.9 µM in assay [12].
For the compound `Cc1ccnc2c1C(=O)C1=C(OC(C)(C)CC1O)C2=O` (configuration not stated), the TGI turned out to be 4.82 µM in [1]; 12.7 µM in assay [2]; 15.2 µM in assay [3]; 8.93 µM in assay [4]; 8.83 µM in assay [5]; 21.1 µM in assay [6]. The TGI in [7] was 10.4 µM; in [8] it was 19 µM; in assay [9], 11.1 µM; in assay [10], 13 µM; in assay [11] it was 17.2 µM; in assay [12], 12.8 µM.
On to `CCOC(=O)CCC(NC(=O)C(Cc1ccccc1)NC(=O)OCc1ccccc1)C(=O)OCC` (stereo not drawn) (Cbz-Phe-Glu(OEt)-OEt; configuration not given here), for which the TGI in [1] is 33.1 µM; in [2], greater than 100 µM; in assay [3], 35 µM; in assay [4], 42 µM; in assay [5] it was 48 µM; in assay [6] it was 36.7 µM. Moreover, the TGI in [7] amounted to 34.9 µM; in assay [8], 30.4 µM; in assay [9], 29.6 µM; in assay [10], 32.1 µM; in assay [11], 22.3 µM; in [12] it was 32.1 µM.
Consider `O=C1/C(=C\c2cccc(Oc3ccccc3)c2)S(=O)(=O)C(c2ccccc2)N1c1cccc(Cl)c1` (configuration not stated), for which the TGI in assay [1], in [2], in assay [3], in [4], in [5] and in assay [6] was greater than 100 µM throughout. For the same compound, the TGI was 69 µM in [7]; greater than 100 µM in assay [8]; greater than 100 µM in assay [9]; greater than 100 µM in assay [10]; greater than 100 µM in assay [11]; greater than 100 µM in assay [12].
Take `COc1ccc(CNc2nc(NC3CCCCC3)nc(NC3CCCCC3)n2)cc1`: the TGI in assay [1] was 12.6 µM; in [2], greater than 100 µM; in [3], greater than 100 µM; in assay [4], greater than 100 µM; in assay [5], 80.3 µM; in [6], greater than 100 µM. The TGI was 50 µM in assay [7]; greater than 100 µM in assay [8]; 28.8 µM in [9]; greater than 100 µM in assay [10]; greater than 100 µM in assay [11]; greater than 100 µM in assay [12].
